# Experimental data reported in article PMC9688344, “[^225Ac]Ac-SibuDAB for Targeted Alpha Therapy of Prostate Cancer: Preclinical Evaluation and Comparison with [^225Ac]Ac-PSMA-617” (Cancers, 2022).
# Test system: immunocompetent FVB mice
# Experiment: Tolerability study in immunocompetent mice
# Format: in vivo
# From the text: Five- to six-week-old immunocompetent, female FVB mice were purchased from Charles River Laboratories (Sulzfeld, Germany). After an acclimatization period of at least 7 days, the mice (n = 5 per group) were intravenously injected with 30 kBq [^225Ac]Ac-SibuDAB or 30 kBq [^225Ac]Ac-PSMA-617 and additional mice (n = 7 per group) remained untreated as controls. Mice were monitored by measuring their body mass and potential signs of pain or unease three times a week (Supplementary Material: Section S7). The mice were euthanized on Day 10, Day 28 or on Day 56, respectively, and variable parameters were assessed from blood and tissue samples.
# Hematological analysis was performed using blood samples taken by cardiac puncture immediately after euthanasia. Blood and bone marrow smears were prepared and stained using the Pappenheim protocol. The assessment was carried out by a board-certified veterinary anatomic pathologist (AnaPath Services GmbH, Liestal, Switzerland). Blood plasma parameters were determined in plasma after centrifugation of blood samples obtained shortly before euthanasia (Supplementary Material: Section S7).
# Tissue sections of formalin-fixed paraffin-embedded (FFPE) spleen, salivary glands and kidneys were prepared and stained with hematoxylin and eosin (H&E) by AnaPath Services GmbH (Liestal, Switzerland). The tissues were analyzed by a board certified veterinary pathologist using a pre-defined scoring system (Supplementary Material: Section S7). […]
# The percentage of radioligand bound to mouse or human plasma (A bound) was plotted against the molar ratios of MSA/HSA to radioligand and fitted with a nonlinear regression curve (specific binding with Hill slope, Bmax set to 100%) using GraphPad Prism software (version 8) to obtain the half maximum binding (B 50).
# Results: The results are reported in the main article.
# Purpose: A tolerability study with normal, immunocompetent FVB mice was con-ducted in order to assess potential side effects to the bone marrow, spleen, salivary glands and kidneys after the application of high activities of the 225Ac-labeled PSMA radioligands.
# Methods: Monitoring Body Mass and Signs of Unease: Mice were monitored by meas-uring their body mass (BM) three times a week. The body masses were expressed as the relative body mass, defined as [BMx/BM0], where BMx is the body mass in grams on a given Day x and BM0 is the body mass in grams on Day 0. Endpoint criteria, defined as (i) >15% loss in body mass, (ii) signs of unease and pain or a combination thereof based on a scoring system, were not reached in this stu dy.
# Hematology: Blood cell counts were determined in blood samples taken by cardiac puncture immediately after euthanasia and collected in EDTA tubes (Microvette® 100 K3 EDTA, Sarstedt, Germany). Leukocyte, lymphocyte, erythrocyte and thrombocyte counts as well as hemoglobin and hematocrit values were determined using a hematology ana-lyzer (VetScan HM5, Abaxis, United States). Blood smears were prepared on glass slides with cardiac blood. The bone marrow was collected from the femur, diluted in FCS/H2O (2:1 v/v) and smeared onto microscopy slides using a paintbrush. The slides were stained with a May Grünwald solution and subsequently with diluted Giemsa solution using the Pappenheim method and covered with coverslips using mounting medium (Pertex).
# The assessment of potential morphological ch anges of the blood cells and counting of the subgroups of leukocytes was performed by a board-certified veterinary pathologist (Ana-Path Services GmbH, Liestal, Switzerland).
# Histopathological Analysis: Spleen, salivary glands and kidneys were formalin-fixed and paraffin-embedded. Tissue sections were stained with hematoxylin & eosin (H&E) […]
# Blood Plasma Parameters: Blood plasma parameters were determined in plasma ob-tained from centrifuged retrobulbar blood samples collected in lithium-heparin tubes (Mi-crovette® 200 LH, SARSTEDT). The concentrations of blood urea nitrogen (BUN), alkaline […]
smiles,measurement,setting,value
CC(C)Cc1ccc(C(C)C(=O)NC(CCN)C(=O)NCCCCC(NC(=O)CN2CCN(CC(=O)[O-])CCN(CC(=O)[O-])CCN(CC(=O)[O-])CC2)C(=O)NCC2CCC(C(=O)NC(Cc3ccc4ccccc4c3)C(=O)NCCCCC(NC(=O)NC(CCC(=O)O)C(=O)O)C(=O)O)CC2)cc1.[225Ac+3] (centres unmarked) [[^225Ac]Ac-SibuDAB],Tolerability (body mass),"30 kBq per mouse, until Day 56",well tolerated
same,"Kidneys: Hyperplasia/hypertrophy, tubular, incidence","Day 10, 30 kBq",0
same,"Kidneys: Hyperplasia/hypertrophy, tubular, score average","Day 10, 30 kBq",0.0
same,"Kidneys: Hypertrophy/hyperplasia, tubular with ectasia, incidence","Day 10, 30 kBq",0
same,"Kidneys: Hypertrophy/hyperplasia, tubular with ectasia, score average","Day 10, 30 kBq",0.0
same,"Kidneys: Inflammatory cells, interstitium, incidence","Day 10, 30 kBq",0
same,"Kidneys: Inflammatory cells, interstitium, score average","Day 10, 30 kBq",0.0
same,"Kidneys: Inflammatory cells, pelvis, incidence","Day 10, 30 kBq",0
same,"Kidneys: Inflammatory cells, pelvis, score average","Day 10, 30 kBq",0.0
same,"Kidneys: Mineralization, papilla, incidence","Day 10, 30 kBq",0
same,"Kidneys: Mineralization, papilla, score average","Day 10, 30 kBq",0.0
same,"Kidneys: Tubular basophilia, incidence","Day 10, 30 kBq",0
same,"Kidneys: Tubular basophilia, score average","Day 10, 30 kBq",0.0
same,"Salivary glands: Ductal hyperplasia with inflammatory cells, incidence","Day 10, 30 kBq",0
same,"Salivary glands: Ductal hyperplasia with inflammatory cells, score average","Day 10, 30 kBq",0.0
same,"Salivary glands: Hypertrophy acinar, sublingual, incidence","Day 10, 30 kBq",0
same,"Salivary glands: Hypertrophy acinar, sublingual, score average","Day 10, 30 kBq",0.0
same,"Salivary glands: Mononuclear cell foci, incidence","Day 10, 30 kBq",1
same,"Salivary glands: Mononuclear cell foci, score average","Day 10, 30 kBq",1.0
same,"Salivary glands: Necrosis, multifocal, serous acinar cells, incidence","Day 10, 30 kBq",two out of five
same,"Salivary glands: Necrosis, multifocal, serous acinar cells, score average","Day 10, 30 kBq",1.0
same,"Salivary glands: Vacuolation, incidence","Day 10, 30 kBq",1
same,"Salivary glands: Vacuolation, score average","Day 10, 30 kBq",1.0
same,"Spleen: Extramedullary hematopoiesis, incidence","Day 10, 30 kBq",5
same,"Spleen: Extramedullary hematopoiesis, score average","Day 10, 30 kBq",1.2
same,"Spleen: Hyperplasia, lymphoid, incidence","Day 10, 30 kBq",1
same,"Spleen: Hyperplasia, lymphoid, score average","Day 10, 30 kBq",1.0
same,"Spleen: Pigment, incidence","Day 10, 30 kBq",5
same,"Spleen: Pigment, score average","Day 10, 30 kBq",1.0
same,mice with relative increase of neutrophilic blasts (metamyelocytes) in peripheral blood,"Day 10, 30 kBq",one out of five
same,myelopoiesis in bone marrow smears (group value),"Day 10, 30 kBq",66%
same,"Salivary glands: Necrosis, multifocal, serous acinar cells, incidence","Day 10, 30 kBq, listed as [225Ac]Ac-SibuDAB",2
same,Bone marrow % E,"Day 10, mouse M1",30%
same,Bone marrow % M,"Day 10, mouse M1",70%
same,"Bone marrow smear, Notes","Day 10, mouse M1","More blasts, neutrophilic row"
same,Bone marrow % E,"Day 10, mouse M2",50%
same,Bone marrow % M,"Day 10, mouse M2",50%
same,Bone marrow % E,"Day 10, mouse M3",40%
same,Bone marrow % M,"Day 10, mouse M3",60%
same,"Blood smear, Notes","Day 10, mouse M4",More neutrophilic blasts (Metamyelocyte)
same,Bone marrow % E,"Day 10, mouse M4",30%
same,Bone marrow % M,"Day 10, mouse M4",70%
same,"Bone marrow smear, Notes","Day 10, mouse M4","More blasts, neutrophilic row"
same,Bone marrow % E,"Day 10, mouse M5",20%
same,Bone marrow % M,"Day 10, mouse M5",80%
same,"Bone marrow smear, Notes","Day 10, mouse M5","More blasts, neutrophilic row"
same,Albumin concentration in blood plasma,"Day 28, 30 kBq",26 ± 1 g/L
same,Blood urea nitrogen,"Day 28, 30 kBq",9.1 ± 1.1 mmol/L
same,Erythrocyte counts,"Day 28, 30 kBq",8.7 ± 0.3 × 10^12/L
same,Hematocrit,"Day 28, 30 kBq",43 ± 1%
same,Hemoglobin,"Day 28, 30 kBq",11.2 ± 0.5 g/dL
same,"Kidneys: Hyperplasia/hypertrophy, tubular, incidence","Day 28, 30 kBq",0
same,"Kidneys: Hyperplasia/hypertrophy, tubular, score average","Day 28, 30 kBq",0.0
same,"Kidneys: Hypertrophy/hyperplasia, tubular with ectasia, incidence","Day 28, 30 kBq",0
same,"Kidneys: Hypertrophy/hyperplasia, tubular with ectasia, score average","Day 28, 30 kBq",0.0
same,"Kidneys: Inflammatory cells, interstitium, incidence","Day 28, 30 kBq",1
same,"Kidneys: Inflammatory cells, interstitium, score average","Day 28, 30 kBq",1.0
same,"Kidneys: Inflammatory cells, pelvis, incidence","Day 28, 30 kBq",2
same,"Kidneys: Inflammatory cells, pelvis, score average","Day 28, 30 kBq",1.0
same,"Kidneys: Mineralization, papilla, incidence","Day 28, 30 kBq",0
same,"Kidneys: Mineralization, papilla, score average","Day 28, 30 kBq",0.0
same,"Kidneys: Tubular basophilia, incidence","Day 28, 30 kBq",0
same,"Kidneys: Tubular basophilia, score average","Day 28, 30 kBq",0.0
same,"Salivary glands: Ductal hyperplasia with inflammatory cells, incidence","Day 28, 30 kBq",0
same,"Salivary glands: Ductal hyperplasia with inflammatory cells, score average","Day 28, 30 kBq",0.0
same,"Salivary glands: Hypertrophy acinar, sublingual, incidence","Day 28, 30 kBq",1
same,"Salivary glands: Hypertrophy acinar, sublingual, score average","Day 28, 30 kBq",1.0
same,"Salivary glands: Mononuclear cell foci, incidence","Day 28, 30 kBq",3
same,"Salivary glands: Mononuclear cell foci, score average","Day 28, 30 kBq",1.0
same,"Salivary glands: Necrosis, multifocal, serous acinar cells, incidence","Day 28, 30 kBq",completely absent
same,"Salivary glands: Necrosis, multifocal, serous acinar cells, score average","Day 28, 30 kBq",0.0
same,"Salivary glands: Vacuolation, incidence","Day 28, 30 kBq",0
same,"Salivary glands: Vacuolation, score average","Day 28, 30 kBq",0.0
same,"Spleen: Extramedullary hematopoiesis, incidence","Day 28, 30 kBq",5
same,"Spleen: Extramedullary hematopoiesis, score average","Day 28, 30 kBq",1.8
same,"Spleen: Hyperplasia, lymphoid, incidence","Day 28, 30 kBq",5
same,"Spleen: Hyperplasia, lymphoid, score average","Day 28, 30 kBq",1.2
same,"Spleen: Pigment, incidence","Day 28, 30 kBq",5
same,"Spleen: Pigment, score average","Day 28, 30 kBq",2.0
same,"Salivary glands: Necrosis, multifocal, serous acinar cells, incidence","Day 28, 30 kBq, listed as [225Ac]Ac-SibuDAB",0
same,Bone marrow % E,"Day 28, mouse M1",40%
same,Bone marrow % M,"Day 28, mouse M1",60%
same,Bone marrow % E,"Day 28, mouse M2",50%
same,Bone marrow % M,"Day 28, mouse M2",50%
same,Bone marrow % E,"Day 28, mouse M3",40%
same,Bone marrow % M,"Day 28, mouse M3",60%
same,Bone marrow % E,"Day 28, mouse M4",50%
same,Bone marrow % M,"Day 28, mouse M4",50%
same,Bone marrow % E,"Day 28, mouse M5",50%
same,Bone marrow % M,"Day 28, mouse M5",50%
same,"Kidneys: Hyperplasia/hypertrophy, tubular, incidence","Day 56, 30 kBq",1
same,"Kidneys: Hyperplasia/hypertrophy, tubular, score average","Day 56, 30 kBq",1.0
same,"Kidneys: Hypertrophy/hyperplasia, tubular with ectasia, incidence","Day 56, 30 kBq",0
same,"Kidneys: Hypertrophy/hyperplasia, tubular with ectasia, score average","Day 56, 30 kBq",0.0
same,"Kidneys: Inflammatory cells, interstitium, incidence","Day 56, 30 kBq",1
same,"Kidneys: Inflammatory cells, interstitium, score average","Day 56, 30 kBq",1.0
same,"Kidneys: Inflammatory cells, pelvis, incidence","Day 56, 30 kBq",1
same,"Kidneys: Inflammatory cells, pelvis, score average","Day 56, 30 kBq",1.0
same,"Kidneys: Mineralization, papilla, incidence","Day 56, 30 kBq",0
same,"Kidneys: Mineralization, papilla, score average","Day 56, 30 kBq",0.0
same,"Kidneys: Tubular basophilia, incidence","Day 56, 30 kBq",2
same,"Kidneys: Tubular basophilia, score average","Day 56, 30 kBq",1.0
same,"Salivary glands: Ductal hyperplasia with inflammatory cells, incidence","Day 56, 30 kBq",0
same,"Salivary glands: Ductal hyperplasia with inflammatory cells, score average","Day 56, 30 kBq",0.0
same,"Salivary glands: Hypertrophy acinar, sublingual, incidence","Day 56, 30 kBq",0
same,"Salivary glands: Hypertrophy acinar, sublingual, score average","Day 56, 30 kBq",0.0
same,"Salivary glands: Mononuclear cell foci, incidence","Day 56, 30 kBq",2
same,"Salivary glands: Mononuclear cell foci, score average","Day 56, 30 kBq",1.0
same,"Salivary glands: Necrosis, multifocal, serous acinar cells, incidence","Day 56, 30 kBq",0
same,"Salivary glands: Necrosis, multifocal, serous acinar cells, score average","Day 56, 30 kBq",0.0
same,"Salivary glands: Vacuolation, incidence","Day 56, 30 kBq",0
same,"Salivary glands: Vacuolation, score average","Day 56, 30 kBq",0.0
same,"Spleen: Extramedullary hematopoiesis, incidence","Day 56, 30 kBq",5
same,"Spleen: Extramedullary hematopoiesis, score average","Day 56, 30 kBq",1.8
same,"Spleen: Hyperplasia, lymphoid, incidence","Day 56, 30 kBq",0
same,"Spleen: Hyperplasia, lymphoid, score average","Day 56, 30 kBq",0.0
same,"Spleen: Pigment, incidence","Day 56, 30 kBq",5
same,"Spleen: Pigment, score average","Day 56, 30 kBq",2.0
same,Bone marrow % E,"Day 56, mouse M1",40%
same,Bone marrow % M,"Day 56, mouse M1",60%
same,Bone marrow % E,"Day 56, mouse M2",30%
same,Bone marrow % M,"Day 56, mouse M2",70%
same,Bone marrow % E,"Day 56, mouse M3",40%
same,Bone marrow % M,"Day 56, mouse M3",60%
same,Bone marrow % E,"Day 56, mouse M4",40%
same,Bone marrow % M,"Day 56, mouse M4",60%
same,Bone marrow % E,"Day 56, mouse M5",40%
same,Bone marrow % M,"Day 56, mouse M5",60%
